Reference: patent publication US8840934B2 (Rainbow Pharmaceutical SA, priority 2009, dated 2014)

Experiments:
IL-6 = assay: Serum IL-6 (ELISA) in TAA-treated Quinster rats given ammonium chloride per os; format: in vivo; conditions: 12 hours post the third TAA injection, mean ± SD
Procedure: (§1) Thioacetamid (TAA) was given to adult male Quinster rats with a course of 400 mg TAA/kg B.W. every 24 hours and for 3 consecutive days. […] The animals were sacrificed in 6 and 12 hours after the 3rd treatment with TTA. TNF-α and IL-6 levels were measured in serum (ELISA test) after 12 hours post the third TAA injection and the results are reported in the following table.

TNF-α = assay: Serum TNF-α (ELISA) in TAA-treated Quinster rats given ammonium chloride per os; format: in vivo; conditions: 12 hours post the third TAA injection, mean ± SD
Procedure: as §1

hyaluronic acid = assay: Hyaluronic acid levels in treated Quinster rats; format: in vivo
Description: The levels of hyaluronic acid in patients with high-grade hepatic damage are usually high, but they appeared decreased in the treated Quinster rats. Furthermore, additional biochemical factors appeared improved.

chronic hepatitis B = assay: Clinical treatment of a patient with chronic hepatitis B, viral charge; format: in vivo, human; conditions: 3 gr/day by the protocol, before treatment 1.65 × 10^6 IU/ml
Procedure: (§2) The above protocol of administration can be repeated several times until the completion of the treatment as judged by the clinician. For example, 21 cycles of treatment are performed, which complies with the natural time of regeneration of liver after a partial hepatectomy in patients. Therefore, the duration of the treatment can be from 1 to 6 months or from 3 to 4 months for patients with partial necrosis.
(§3) Patients were treated according to the above described protocol, using a dose of 3 gr/day.

hepatitis C = assay: Clinical treatment of a patient with hepatitis C, viral charge; format: in vivo, human; conditions: Patient B, 3 gr/day by the protocol, before treatment 1.65 × 10^8 IU/ml
Procedure: as §2, §3

Hepatitis Virus = assay: Use of NH4Cl in treating hepatitis virus, reduction of viral charge across patients; format: in vivo; conditions: in humans; Patients A and B, 3 months of treatment, 3 gr/day
Procedure: as §3

## Cl.N [NH4Cl, ammonium chloride]
IL-6; Group II, at least 8 animals per group, Control 11 ± 5, Group I 58 ± 9
  IL-6: 69 ± 12 pg/dL
IL-6; Group III
  IL-6: 92 ± 8 pg/dL
IL-6; Group IV
  IL-6: 73 ± 12 pg/dL
TNF-α; Group II, Control 21 ± 4, Group I 65 ± 15
  TNF-α: 52 ± 17 pg/dL
TNF-α; Group III
  TNF-α: 32 ± 6 pg/dL
TNF-α; Group IV
  TNF-α: 45 ± 9 pg/dL
Hyaluronic acid
  levels of hyaluronic acid: decreased
Chronic hepatitis B
  Viral charge after 3 months of treatment: 1.65 × 10^3 IU/ml
Hepatitis C
  Viral charge after 3 months of treatment: 1.65 × 10^6 IU/ml
Hepatitis Virus
  factor of reduction of the viral charge: at least 10^2
